# Measured values published in PMC7382816 (BMC Pharmacology & Toxicology, 2020).
# Like-named read-outs stand apart in the source and are kept apart here.
# Tests used:
# [1] = Single-dose pharmacokinetics in healthy volunteers under fasting and fed (high-fat breakfast) conditions, plasma concentrations by HPLC-MS, non-compartmental analysis; assay type: in vivo, human; parameters: Ke: unit not given here; details: for AUC(0-inf) / CL/F / Vd/F / half-life / Cmax / Tmax: human, plasma; for Cmax: read-out: Cmax
# Excerpt: The bioequivalence clinical trials were phase I, randomized, open-label, crossover, single-centre, with two periods separated by a 7-day washout stage. Subjects were randomised to one of the two treatment sequences, RT or TR where R was the reference formulation and T was the test formulation. Each of the clinical trial was crossover for evaluation of a test formulation compared to a reference formulation either under fed or fasting conditions. […] The treatments were allocated in a balanced manner on every inclusion day (blocks of 4 subjects). Our study adheres to CONSORT guidelines. […] Sample processing, genotyping for CYP2C19 and drug quantification were performed according to Román et al. […] Pharmacokinetic parameters were estimated from the plasma concentration–time data by non-compartmental analysis (WinNonlin Professional, version 2.0., Pharsight Corporation, USA) as reported by Román et al. […] WinNonLin Professional software version 2.0 was used for the statistical analysis. Pharmacokinetic parameters were log-transformed, and AUC and Cmax were adjusted for dose and weight. The values of pharmacokinetic parameters were expressed as mean ± standard deviation.
# [2] = 40 mg; ref [27] Huber et al.; cited from earlier work
# [3] = both sexes, oral, only CYP2C19*1/*1 subjects, Fast, men and women, mean ± SD
# [4] = both sexes, oral, only CYP2C19*1/*1 subjects, Fed, men and women, mean ± SD
# [5] = both sexes, po, Fast, all subjects, single oral dose, mean ± SD
# [6] = both sexes, po, Fed (high-fat breakfast), all subjects, single oral dose, mean ± SD
# [7] = female, oral, only CYP2C19*1/*1 subjects, Fast, women, mean ± SD
# [8] = female, oral, only CYP2C19*1/*1 subjects, Fed, women, mean ± SD
# [9] = female, po, Fast, women, single oral dose, mean ± SD
# [10] = female, po, Fed, women, single oral dose, mean ± SD
# [11] = male, oral, only CYP2C19*1/*1 subjects, Fast, men, mean ± SD
# [12] = male, oral, only CYP2C19*1/*1 subjects, Fed, men, mean ± SD
# [13] = male, po, Fast, men, single oral dose, mean ± SD
# [14] = male, po, Fed, men, single oral dose, mean ± SD
smiles,measurement,setting,value
"COc1ccnc(C[S+]([O-])c2nc3ccc(OC(F)F)cc3[nH]2)c1OC (stereo not drawn) [Pantoprazole, pantoprazole]",Ke,"[1]; Fast, all subjects, single oral dose, mean ± SD",0.61 ± 0.21
same,Ke,"[1]; Fast, men, single oral dose, mean ± SD",0.56 ± 0.23
same,Ke,"[1]; Fast, women, single oral dose, mean ± SD",0.65 ± 0.18
same,Ke,"[1]; Fed (high-fat breakfast), all subjects, single oral dose, mean ± SD",0.63 ± 0.21
same,Ke,"[1]; Fed, men, single oral dose, mean ± SD",0.61 ± 0.23
same,Ke,"[1]; Fed, women, single oral dose, mean ± SD",0.65 ± 0.19
same,AUC(0-inf),[1]; [3],6090 ± 2920 ng·h/mL
same,CL/F,[1]; [3],2 mL/min/kg
same,Vd/F,[1]; [3],0.18 ± 0.03 L/kg
same,half-life,[1]; [3],1.2 ± 0.4 h
same,Cmax,[1]; [3],2540 ± 836 ng/mL
same,Tmax,"[1]; both sexes, oral, only CYP2C19*1/*1 subjects, Fast, men and women, mean ± SD, read-out: Tmax",3 ± 0.7 h
same,AUC(0-inf),[1]; [4],4690 ± 2300 ng·h/mL
same,CL/F,[1]; [4],2.67 mL/min/kg
same,Vd/F,[1]; [4],0.24 ± 0.05 L/kg
same,half-life,[1]; [4],1.2 ± 0.5 h
same,Cmax,[1]; [4],2660 ± 531 ng/mL
same,Tmax,"[1]; both sexes, oral, only CYP2C19*1/*1 subjects, Fed, men and women, mean ± SD, read-out: Tmax",5.7 ± 1.2 h
same,Tmax,"[1]; both sexes, oral, under fasting conditions, range among subjects, read-out: Tmax range",1.5 to 5 h
same,Tmax,"[1]; both sexes, oral, under fed conditions, range among subjects, read-out: Tmax range",1 to 21 h
same,AUC(0-inf),[1]; [5],6950 ± 3290 ng·h/mL
same,CL/F,[1]; [5],1.83 mL/min/kg
same,Vd/F,[1]; [5],0.17 ± 0.03 L/kg
same,half-life,[1]; [5],1.3 ± 0.6 h
same,Cmax,[1]; [5],2780 ± 862 ng/mL
same,Tmax,"[1]; both sexes, po, Fast, all subjects, single oral dose, mean ± SD, read-out: Tmax",3 ± 0.8 h
same,AUC(0-inf),[1]; [6],4630 ± 2020 ng·h/mL
same,CL/F,[1]; [6],2.67 mL/min/kg
same,Vd/F,[1]; [6],0.26 ± 0.1 L/kg
same,half-life,[1]; [6],1.3 ± 0.6 h
same,Cmax,[1]; [6],2650 ± 603 ng/mL
same,Tmax,"[1]; both sexes, po, Fed (high-fat breakfast), all subjects, single oral dose, mean ± SD, read-out: Tmax",7 ± 3 h
same,AUC lower under fed conditions,"[1]; fed vs fasting, all subjects",33%
same,Delay of mean Tmax (absorption) by food,"[1]; fed vs fasting, all subjects",around 4 h
same,Delay of Tmax by food,"[1]; fed vs fasting, only subjects with CYP2C19*1/*1",2.7 h
same,AUC(0-inf),[1]; [7],7820 ± 2700 ng·h/mL
same,CL/F,[1]; [7],1.83 mL/min/kg
same,Vd/F,[1]; [7],0.16 ± 0.04 L/kg
same,half-life,[1]; [7],1.1 ± 0.2 h
same,Cmax,[1]; [7],3230 ± 685 ng/mL
same,Tmax,"[1]; female, oral, only CYP2C19*1/*1 subjects, Fast, women, mean ± SD, read-out: Tmax",2.9 ± 0.8 h
same,AUC(0-inf),[1]; [8],4910 ± 2190 ng·h/mL
same,CL/F,[1]; [8],2.83 mL/min/kg
same,Vd/F,[1]; [8],0.25 ± 0.06 L/kg
same,half-life,[1]; [8],1.1 ± 0.3 h
same,Cmax,[1]; [8],2790 ± 476 ng/mL
same,Tmax,"[1]; female, oral, only CYP2C19*1/*1 subjects, Fed, women, mean ± SD, read-out: Tmax",6.2 ± 1.1 h
same,AUC(0-inf),[1]; [9],7320 ± 2710 ng·h/mL
same,CL/F,[1]; [9],1.83 mL/min/kg
same,Vd/F,[1]; [9],0.16 ± 0.03 L/kg
same,half-life,[1]; [9],1.1 ± 0.3 h
same,Cmax,[1]; [9],3240 ± 859 ng/mL
same,Tmax,"[1]; female, po, Fast, women, single oral dose, mean ± SD, read-out: Tmax",2.9 ± 0.8 h
same,AUC(0-inf),[1]; [10],4660 ± 1790 ng·h/mL
same,CL/F,[1]; [10],2.83 mL/min/kg
same,Vd/F,[1]; [10],0.28 ± 0.12 L/kg
same,half-life,[1]; [10],1.2 ± 0.7 h
same,Cmax,[1]; [10],2700 ± 614 ng/mL
same,Tmax,"[1]; female, po, Fed, women, single oral dose, mean ± SD, read-out: Tmax",8.4 ± 3.7 h
same,AUC(0-inf),[1]; [11],4780 ± 2470 ng·h/mL
same,CL/F,[1]; [11],2.33 mL/min/kg
same,Vd/F,[1]; [11],0.2 ± 0.02 L/kg
same,half-life,[1]; [11],1.3 ± 0.5 h
same,Cmax,[1]; [11],2020 ± 493 ng/mL
same,Tmax,"[1]; male, oral, only CYP2C19*1/*1 subjects, Fast, men, mean ± SD, read-out: Tmax",3 ± 0.7 h
same,AUC(0-inf),[1]; [12],4520 ± 2520 ng·h/mL
same,CL/F,[1]; [12],2.5 mL/min/kg
same,Vd/F,[1]; [12],0.23 ± 0.03 L/kg
same,half-life,[1]; [12],1.2 ± 0.6 h
same,Cmax,[1]; [12],2560 ± 581 ng/mL
same,Tmax,"[1]; male, oral, only CYP2C19*1/*1 subjects, Fed, men, mean ± SD, read-out: Tmax",5.3 ± 1.1 h
same,AUC(0-inf),[1]; [13],6580 ± 3830 ng·h/mL
same,CL/F,[1]; [13],1.83 mL/min/kg
same,Vd/F,[1]; [13],0.18 ± 0.03 L/kg
same,half-life,[1]; [13],1.5 ± 0.7 h
same,Cmax,[1]; [13],2320 ± 581 ng/mL
same,Tmax,"[1]; male, po, Fast, men, single oral dose, mean ± SD, read-out: Tmax",3.1 ± 0.8 h
same,AUC(0-inf),[1]; [14],4610 ± 2270 ng·h/mL
same,CL/F,[1]; [14],2.5 mL/min/kg
same,Vd/F,[1]; [14],0.25 ± 0.08 L/kg
same,half-life,[1]; [14],1.3 ± 0.5 h
same,Cmax,[1]; [14],2590 ± 601 ng/mL
same,Tmax,"[1]; male, po, Fed, men, single oral dose, mean ± SD, read-out: Tmax",5.6 ± 1.1 h
same,Ke,"[1]; only CYP2C19*1/*1 subjects, Fast, men and women, mean ± SD",0.64 ± 0.19
same,Ke,"[1]; only CYP2C19*1/*1 subjects, Fast, men, mean ± SD",0.64 ± 0.23
same,Ke,"[1]; only CYP2C19*1/*1 subjects, Fast, women, mean ± SD",0.63 ± 0.12
same,Ke,"[1]; only CYP2C19*1/*1 subjects, Fed, men and women, mean ± SD",0.67 ± 0.20
same,Ke,"[1]; only CYP2C19*1/*1 subjects, Fed, men, mean ± SD",0.67 ± 0.25
same,Ke,"[1]; only CYP2C19*1/*1 subjects, Fed, women, mean ± SD",0.68 ± 0.14
same,effect of concomitant intake of a standard breakfast on bioavailability,[2],no effect on bioavailability
